Among the data in ChEMBL document CHEMBL1139699, “Solid-phase synthesis and antibacterial activity of hydroxycinnamic acid amides and analogues against methicillin-resistant Staphylococcus aureus and vancomycin-resistant S. aureus” (Bioorg Med Chem Lett, 2006) are MIC, IC50 and Activity values, retold here.

The subject of experiment [1] is Staphylococcus aureus. Put plainly: Antibacterial activity against vancomycin-resistant Staphylococcus aureus 20623. The format is functional.
For experiment [2], the system named is Staphylococcus aureus. Nature of the experiment: Antibacterial activity against methicillin-resistant Staphylococcus aureus. Type of experiment: functional.
Experiment [3] has as its system Staphylococcus aureus. Put plainly: Antibacterial activity against methicillin-resistant Staphylococcus aureus 20632. The format is functional.
Experiment [4] relates to Staphylococcus aureus. Put plainly: Antibacterial activity against methicillin-resistant Staphylococcus aureus 20636. The format is functional.
Experiment [5] is described as follows: Cytotoxicity against human gingival cells. Type of experiment: cell-based.
Experiment [6] deals with Staphylococcus aureus. Put plainly: Antibacterial activity against methicillin-resistant Staphylococcus aureus 20652 at 50 ug/ml. The format is functional, organism-based.
For experiment [7], the system named is Staphylococcus aureus. Put plainly: Antibacterial activity against methicillin-resistant Staphylococcus aureus 20635. The format is functional.
In experiment [8] the test system is Staphylococcus aureus. Put plainly: Antibacterial activity against vancomycin-resistant Staphylococcus aureus 20624. The format is functional.
Experiment [9] deals with Staphylococcus aureus. Put plainly: Antibacterial activity against vancomycin-resistant Staphylococcus aureus 21083. The format is functional.
The subject of experiment [10] is Staphylococcus aureus. Put plainly: Antibacterial activity against methicillin-resistant Staphylococcus aureus 20630. Type of experiment: functional.
Experiment [11] relates to Staphylococcus aureus. Nature of the experiment: Antibacterial activity against methicillin-resistant Staphylococcus aureus 20633. The format is functional.
Experiment [12] deals with Staphylococcus aureus. Put plainly: Antibacterial activity against methicillin-resistant Staphylococcus aureus 20628. The format is functional.
For experiment [13], the system named is Staphylococcus aureus. Nature of the experiment: Antibacterial activity against methicillin-resistant Staphylococcus aureus 20654. Type of experiment: functional.
The subject of experiment [14] is Staphylococcus aureus. Put plainly: Antibacterial activity against vancomycin-resistant Staphylococcus aureus 20622. Type of experiment: functional.
For experiment [15], the system named is Staphylococcus aureus. Put plainly: Antibacterial activity against methicillin-resistant Staphylococcus aureus 20631. Type of experiment: functional.
The subject of experiment [16] is Staphylococcus aureus. Nature of the experiment: Antibacterial activity against methicillin-resistant Staphylococcus aureus 20653. Type of experiment: functional.
Experiment [17] deals with Staphylococcus aureus. Put plainly: microbe, parasite or virus in culture. As to conditions: 20652.
Experiment [18] deals with Staphylococcus aureus. Put plainly: Antibacterial activity against vancomycin-resistant Staphylococcus aureus 21083 at 256 ug/ml. The format is functional, organism-based.
In experiment [19] the test system is Staphylococcus aureus. Put plainly: Antibacterial activity against vancomycin-resistant Staphylococcus aureus 20623 at 256 ug/ml. Type of experiment: functional, organism-based.
Experiment [20] has as its system Staphylococcus aureus. Nature of the experiment: Antibacterial activity against vancomycin-resistant Staphylococcus aureus 20622 at 256 ug/ml. The format is functional, organism-based.
Experiment [21] deals with Staphylococcus aureus. Nature of the experiment: Antibacterial activity against vancomycin-resistant Staphylococcus aureus 20624 at 256 ug/ml. The format is functional, organism-based.
The test system of experiment [22] is Staphylococcus aureus. Nature of the experiment: Antibacterial activity against methicillin-resistant Staphylococcus aureus 20628 at 25 ug/ml. The format is functional, organism-based.
Experiment [23] concerns Staphylococcus aureus. Put plainly: Antibacterial activity against methicillin-resistant Staphylococcus aureus 20636 at 25 ug/ml. The format is functional, organism-based.
For experiment [24], the system named is Staphylococcus aureus. Nature of the experiment: Antibacterial activity against methicillin-resistant Staphylococcus aureus 20652 at 25 ug/ml. Type of experiment: functional, organism-based.
The subject of experiment [25] is Staphylococcus aureus. Put plainly: Antibacterial activity against methicillin-resistant Staphylococcus aureus 20653 at 25 ug/ml. Type of experiment: functional, organism-based.
The subject of experiment [26] is Staphylococcus aureus. Nature of the experiment: Antibacterial activity against methicillin-resistant Staphylococcus aureus 20654 at 25 ug/ml. Type of experiment: functional, organism-based.
The subject of experiment [27] is Staphylococcus aureus. Put plainly: Antibacterial activity against methicillin-resistant Staphylococcus aureus 20633 at 25 ug/ml. Type of experiment: functional, organism-based.
For experiment [28], the system named is Staphylococcus aureus. Put plainly: Antibacterial activity against methicillin-resistant Staphylococcus aureus 20631 at 256 ug/ml. The format is functional, organism-based.
Experiment [29] has as its system Staphylococcus aureus. Put plainly: Antibacterial activity against methicillin-resistant Staphylococcus aureus 20654 at 256 ug/ml. The format is functional, organism-based.
The test system of experiment [30] is Staphylococcus aureus. Nature of the experiment: Antibacterial activity against methicillin-resistant Staphylococcus aureus 20630 at 256 ug/ml. Type of experiment: functional, organism-based.
Experiment [31] concerns Staphylococcus aureus. Put plainly: Antibacterial activity against methicillin-resistant Staphylococcus aureus 20633 at 256 ug/ml. The format is functional, organism-based.
In experiment [32] the test system is Staphylococcus aureus. Put plainly: Antibacterial activity against methicillin-resistant Staphylococcus aureus 20653 at 256 ug/ml. The format is functional, organism-based.
In experiment [33] the test system is Staphylococcus aureus. Put plainly: Antibacterial activity against methicillin-resistant Staphylococcus aureus 20652 at 256 ug/ml. Type of experiment: functional, organism-based.
The subject of experiment [34] is Staphylococcus aureus. Put plainly: Antibacterial activity against methicillin-resistant Staphylococcus aureus 20636 at 256 ug/ml. The format is functional, organism-based.
Experiment [35] has as its system Staphylococcus aureus. Put plainly: Antibacterial activity against methicillin-resistant Staphylococcus aureus 20628 at 256 ug/ml. The format is functional, organism-based.
In experiment [36] the test system is Staphylococcus aureus. Put plainly: Antibacterial activity against methicillin-resistant Staphylococcus aureus at 256 ug/ml. The format is functional, organism-based.
Experiment [37] concerns Staphylococcus aureus. Nature of the experiment: Antibacterial activity against methicillin-resistant Staphylococcus aureus 20632 at 256 ug/ml. Type of experiment: functional, organism-based.
For experiment [38], the system named is Staphylococcus aureus. Put plainly: Antibacterial activity against methicillin-resistant Staphylococcus aureus 20635 at 256 ug/ml. The format is functional, organism-based.
Experiment [39] deals with Staphylococcus aureus. Put plainly: Antibacterial activity against methicillin-resistant Staphylococcus aureus 20652 at 100 ug/ml. The format is functional, organism-based.

≈ marks a conversion by molar mass, not a printed value. Calls of active or inactive are those of the source. The rule behind the calls is not given here. Bounds are passed on as bounds.

With `NCCCNC(=O)CCc1ccc(O)c(O)c1`, the MIC in experiment [1] stood at 50 µg/mL (≈ 210 µM); in experiment [2] it was 50 µg/mL (≈ 210 µM); in [3], 50 µg/mL (≈ 210 µM); in experiment [4] it was 25 µg/mL (≈ 105 µM); in experiment [7], 25 µg/mL (≈ 105 µM); in experiment [8], 50 µg/mL (≈ 210 µM). The MIC in [9] is 25 µg/mL (≈ 105 µM); in experiment [10] it was 50 µg/mL (≈ 210 µM); in [11], 50 µg/mL (≈ 210 µM); in [12], 50 µg/mL (≈ 210 µM); in experiment [13], 50 µg/mL (≈ 210 µM); in experiment [14] it was 100 µg/mL (≈ 420 µM). For the same molecule, the MIC in [15] came out at 50 µg/mL (≈ 210 µM); in experiment [16], 25 µg/mL (≈ 105 µM). For the same molecule, in [5], the IC50 (as a rule, the concentration at which inhibition is half-maximal) was more than 100 µg/mL. Besides, the outcome in [6] was inactive.
Take `CN[C@H](CC(C)C)C(=O)N[C@H]1C(=O)N[C@@H](CC(N)=O)C(=O)N[C@H]2C(=O)N[C@H]3C(=O)N[C@H](C(=O)N[C@H](C(=O)O)c4cc(O)cc(O)c4-c4cc3ccc4O)[C@H](O)c3ccc(c(Cl)c3)Oc3cc2cc(c3O[C@@H]2O[C@H](CO)[C@@H](O)[C@H](O)[C@H]2O[C@H]2C[C@](C)(N)[C@H](O)[C@H](C)O2)Oc2ccc(cc2Cl)[C@H]1O` [VANCOMYCIN]: the MIC in experiment [3] worked out at 3 µg/mL (≈ 2.07 µM); in experiment [4] it was 1.5 µg/mL (≈ 1.04 µM); in experiment [7], 8 µg/mL (≈ 5.52 µM); in experiment [17], 0.25 µg/mL (≈ 0.173 µM); in [10] it was 1.5 µg/mL (≈ 1.04 µM); in experiment [13] it was 1.5 µg/mL (≈ 1.04 µM). Also, the MIC in [15] was determined as 48 µg/mL (≈ 33.1 µM). Moreover, the result in experiment [18], in [19], in [20] and in experiment [21] was inactive.
On to `NCCCCCNC(=O)CCc1ccc(O)c(O)c1`, for which the MIC in experiment [1] amounted to 25 µg/mL (≈ 93.9 µM); in [2] it was 50 µg/mL (≈ 188 µM); in experiment [3] it was 50 µg/mL (≈ 188 µM); in experiment [7], 25 µg/mL (≈ 93.9 µM); in experiment [8], 50 µg/mL (≈ 188 µM); in experiment [9], 25 µg/mL (≈ 93.9 µM). In addition, the MIC in experiment [10], in experiment [14] and in experiment [15] was 50 µg/mL (≈ 188 µM) each time. In addition, the outcome in experiment [22], in experiment [23], in experiment [24], in [25], in experiment [26] and in experiment [27] was inactive. The molecule also registered an IC50 in experiment [5] of more than 100 µg/mL.
For `Cc1onc(-c2ccccc2)c1C(=O)N[C@@H]1C(=O)N2[C@@H]1SC(C)(C)[C@@H]2C(=O)O`, the outcome in experiment [28], in experiment [29], in experiment [30], in experiment [31], in experiment [32] and in experiment [33] was inactive. The result in experiment [34], in experiment [35], in [36], in [37], in experiment [18] and in [38] was inactive. Further, the outcome in experiment [19], in experiment [20] and in experiment [21] was inactive.
`NCCCCCCNC(=O)/C=C/c1ccc(O)c(O)c1`: the MIC turned out to be 50 µg/mL (≈ 180 µM) in [1]; 100 µg/mL (≈ 359 µM) in [2]; 50 µg/mL (≈ 180 µM) in experiment [3]; 50 µg/mL (≈ 180 µM) in [4]; 25 µg/mL (≈ 89.8 µM) in experiment [7]; 50 µg/mL (≈ 180 µM) in experiment [8]. Moreover, the MIC is 25 µg/mL (≈ 89.8 µM) in experiment [9]; 50 µg/mL (≈ 180 µM) in experiment [10]; 50 µg/mL (≈ 180 µM) in experiment [11]; 50 µg/mL (≈ 180 µM) in experiment [12]; 25 µg/mL (≈ 89.8 µM) in experiment [13]; 100 µg/mL (≈ 359 µM) in experiment [14]. Also, the MIC in [15] was found to be 50 µg/mL (≈ 180 µM); in [16], 25 µg/mL (≈ 89.8 µM). Moreover, the outcome in experiment [39] was inactive. Moreover, the IC50 in experiment [5] was more than 100 µg/mL.
For the molecule `NCCCCNC(=O)CCc1ccc(O)c(O)c1`, the MIC in experiment [1] was 25 µg/mL (≈ 99.1 µM); in [2], 25 µg/mL (≈ 99.1 µM); in experiment [3], 25 µg/mL (≈ 99.1 µM); in experiment [4] it was 25 µg/mL (≈ 99.1 µM); in [7] it was 12.5 µg/mL (≈ 49.5 µM); in [8] it was 25 µg/mL (≈ 99.1 µM). Besides, the MIC in experiment [9] is 25 µg/mL (≈ 99.1 µM); in [10], 50 µg/mL (≈ 198 µM); in experiment [11], 25 µg/mL (≈ 99.1 µM); in [12] it was 50 µg/mL (≈ 198 µM); in experiment [13], 25 µg/mL (≈ 99.1 µM); in experiment [14], 100 µg/mL (≈ 396 µM). Besides, the MIC in [15] and in experiment [16] was 25 µg/mL (≈ 99.1 µM) each time. Also, the IC50 in [5] was more than 100 µg/mL. Besides, the result in experiment [6] was inactive.
